Assay results published in patent publication US8569343B2, “Oligomer-opioid agonist conjugates” (Nektar Therapeutics, priority 2007, dated 2013).

The compounds below were run against T1, cloned human kappa opioid receptor (Homo sapiens, UniProt P41145) (assay: cell-based). Conditions: not given.
T1 construct: expressed in transfected cells; host or cells: CHO cells
Method: The efficacy of the various PEG-opioid conjugates was measured by their ability to inhibit cAMP formation following receptor activation. Studies were conducted in CHO cells heterologously expressing the cloned human mu, kappa or delta opioid receptors. cAMP was measured using a cAMP HiRange homogenous time-resolved fluorescence assay (HTRF Assay), that is based on a competitive immunoassay principle (Cisbio, Cat. #62AM6PEC).
Briefly, suspensions of cells expressing either the mu, kappa or delta opioid receptors were prepared in buffer containing 0.5 mM isobutyl-methyl xanthine (IBMX). […] EC50 values were calculated for each compound from a sigmoidal dose-response plot of concentrations versus maximum response. To determine if the compounds behaved as full or partial agonists in the system, the maximal response at the highest tested concentrations of compounds were compared to that produced by a known full agonist.

T1 sequence (P41145 whole entry): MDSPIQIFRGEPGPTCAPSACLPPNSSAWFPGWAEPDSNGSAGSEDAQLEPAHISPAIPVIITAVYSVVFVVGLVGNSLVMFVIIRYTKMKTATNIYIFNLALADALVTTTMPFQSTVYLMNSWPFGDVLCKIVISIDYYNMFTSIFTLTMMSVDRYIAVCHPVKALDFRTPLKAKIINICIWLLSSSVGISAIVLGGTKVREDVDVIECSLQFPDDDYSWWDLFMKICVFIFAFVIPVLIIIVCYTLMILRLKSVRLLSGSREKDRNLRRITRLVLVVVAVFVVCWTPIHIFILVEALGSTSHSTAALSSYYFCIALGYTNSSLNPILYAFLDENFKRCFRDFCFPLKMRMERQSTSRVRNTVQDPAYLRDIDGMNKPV

| Compound | EC50 |
| --- | --- |
| COc1ccc2c3c1O[C@H]1C(O)CC[C@@]4(O)[C@@H](C2)N(C)CC[C@]314 (stereo partly drawn) [Hydroxycodone, α-6-hydroxycodone, reference compound] | > 500 µM |
| α-6-mPEG4-O-codeine | > 500 µM |
| α-6-mPEG6-O-codeine | > 500 µM |
| α-6-mPEG5-O-codeine | > 500 µM |
| COCCOCCOCCOCCO[C@H]1CC[C@@]2(O)[C@H]3Cc4ccc(OC)c5c4[C@@]2(CCN3C)[C@H]1O5 [α-6-mPEG4-O-Hydroxycodone, α-6-mPEG4-O-hydroxycodone] | > 500 µM |
| α-6-mPEG1-O-codeine | > 500 µM |

Same assay, conditions: inhibition of cAMP formation; 3 μM forskolin; tested upto 500 μM

| Compound | EC50 |
| --- | --- |
| COCCOCCOCCOCCOCCOCCOCCO[C@H]1CC[C@@]2(O)[C@H]3Cc4ccc(OC)c5c4[C@@]2(CCN3C)[C@H]1O5 [α-6-mPEG7-O-Hydroxycodone, α-6-mPEG7-O-hydroxycodone] | > 500 µM |
| COCCOCCO[C@H]1CC[C@@]2(O)[C@H]3Cc4ccc(OC)c5c4[C@@]2(CCN3C)[C@H]1O5 [α-6-mPEG2-O-Hydroxycodone, α-6-mPEG2-O-hydroxycodone] | > 500 µM |
| COCCOCCOCCOCCOCCOCCO[C@H]1CC[C@@]2(O)[C@H]3Cc4ccc(OC)c5c4[C@@]2(CCN3C)[C@H]1O5 [α-6-mPEG6-O-Hydroxycodone, α-6-mPEG6-O-hydroxycodone] | > 500 µM |
| COCCOCCOCCOCCOCCO[C@H]1CC[C@@]2(O)[C@H]3Cc4ccc(OC)c5c4[C@@]2(CCN3C)[C@H]1O5 [α-6-mPEG5-O-Hydroxycodone, α-6-mPEG5-O-hydroxycodone] | > 500 µM |
| COCCOCCOCCO[C@H]1CC[C@@]2(O)[C@H]3Cc4ccc(OC)c5c4[C@@]2(CCN3C)[C@H]1O5 [α-6-mPEG3-O-Hydroxycodone, α-6-mPEG3-O-hydroxycodone] | > 500 µM |
| COCCOCCOCCOCCOCCOCCOCCOCCOCCO[C@H]1CC[C@@]2(O)[C@H]3Cc4ccc(OC)c5c4[C@@]2(CCN3C)[C@H]1O5 [α-6-mPEG9-O-Hydroxycodone, α-6-mPEG9-O-hydroxycodone] | > 500 µM |
| COCCO[C@H]1CC[C@@]2(O)[C@H]3Cc4ccc(OC)c5c4[C@@]2(CCN3C)[C@H]1O5 [α-6-mPEG1-O-Hydroxycodone, α-6-mPEG1-O-hydroxycodone] | > 500 µM |

What follows are compounds tested against recombinant human delta opioid receptor (Homo sapiens, UniProt P41143) (assay: not given). Conditions: GTP-γS binding, screened up to 10 μM in agonist and antagonist mode.
Sequence of recombinant human delta opioid receptor (P41143 whole entry): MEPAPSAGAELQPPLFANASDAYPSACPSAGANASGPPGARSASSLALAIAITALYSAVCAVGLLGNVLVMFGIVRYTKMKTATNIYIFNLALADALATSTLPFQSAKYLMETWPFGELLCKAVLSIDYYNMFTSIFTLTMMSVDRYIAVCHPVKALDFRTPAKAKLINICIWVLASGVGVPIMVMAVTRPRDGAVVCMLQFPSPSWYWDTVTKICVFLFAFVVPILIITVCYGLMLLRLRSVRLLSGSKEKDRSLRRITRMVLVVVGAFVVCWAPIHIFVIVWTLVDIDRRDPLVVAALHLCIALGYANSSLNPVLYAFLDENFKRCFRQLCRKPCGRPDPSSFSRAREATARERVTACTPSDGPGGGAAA

| Compound | effect at the delta opioid receptor |
| --- | --- |
| COCCOCCOCCO[C@H]1CC[C@@]2(O)[C@H]3Cc4ccc(O)c5c4[C@@]2(CCN3CC2CCC2)C1O5 (some centres unmarked) [6-O-mPEG3-Nalbuphine, 6-O-mPEG3-nalbuphine] | no effect |
